Experimental data reported in EP1262190A1, “RFRP-CONTAINING PROLACTIN SECRETION REGULATORY AGENT” (Takeda Chemical Industries, Ltd., priority 2000, dated 2001).
Where no end group is shown, it is not given here.

Assays:
[1] = biological target: T1, Human 0T7T022 receptor-expressing CHO cells (Homo sapiens, UniProt Q9GZQ6); assay: Agonist activity of RF amide peptides: inhibition of forskolin-increased cAMP in human 0T7T022 receptor-expressing CHO cells; type: cell-based; settings: 1 µM forskolin, 37°C for 30 minutes, FIG. 14
T1 construct: expressed in transfected cells; host or cells: CHO cells
T1 sequence (Q9GZQ6 whole entry): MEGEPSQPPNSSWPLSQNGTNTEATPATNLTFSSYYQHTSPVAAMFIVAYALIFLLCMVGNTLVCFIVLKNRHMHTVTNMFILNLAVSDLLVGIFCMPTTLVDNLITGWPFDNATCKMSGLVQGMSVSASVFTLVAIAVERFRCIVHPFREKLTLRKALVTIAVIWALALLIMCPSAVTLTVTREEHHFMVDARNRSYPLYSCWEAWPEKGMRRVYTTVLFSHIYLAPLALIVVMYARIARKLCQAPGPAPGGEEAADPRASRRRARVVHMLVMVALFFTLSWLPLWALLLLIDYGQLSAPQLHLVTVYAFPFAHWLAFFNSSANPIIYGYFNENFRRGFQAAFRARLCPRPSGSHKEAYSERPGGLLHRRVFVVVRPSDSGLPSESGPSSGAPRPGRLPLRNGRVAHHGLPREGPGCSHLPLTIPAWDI
Method: Human 0T7T022 receptor-expressing CHO cells obtained by a modification of the method described in WO 00/29441 were inoculated on a 24-well plate in a concentration of 3 x 10^5 cells/well. After incubation overnight, the cells were rinsed with Hanks' buffer (HBSS) supplemented with 0.05% BSA and 0.2 mM IBMX, and then preincubated at 37°C for 30 minutes in the same buffer. Next, the buffer was exchanged by Hanks' buffer (HBSS) supplemented with 0.05% BSA and 0.2 mM IBMX, or HBSS further added with 1 µM forskolin only, or HBSS added with 1 µM forskolin and peptide of various concentrations, followed by incubation at 37°C for 30 minutes. After completion of the incubation, cAMP in the cells of each well was extracted and quantified according to the method of cAMP EIA Kit (Amersham Inc.). An inhibition rate of the increased cAMP level in the cells by the forskolin treatment was calculated with the respective concentrations of the peptide.

[2] = biological target: T2, r0T7T022L receptor-expressing CHO cells (Rattus norvegicus, UniProt Q9EP86); assay: Reaction of receptor-expressing CHO cells with peptides in the cytosensor (acidification rate); type: cell-based; settings: peptide exposure for 7 minutes and 2 seconds, FIG. 8
T2 construct: expressed in transfected cells; host or cells: CHO cells
T2 sequence (Q9EP86 whole entry): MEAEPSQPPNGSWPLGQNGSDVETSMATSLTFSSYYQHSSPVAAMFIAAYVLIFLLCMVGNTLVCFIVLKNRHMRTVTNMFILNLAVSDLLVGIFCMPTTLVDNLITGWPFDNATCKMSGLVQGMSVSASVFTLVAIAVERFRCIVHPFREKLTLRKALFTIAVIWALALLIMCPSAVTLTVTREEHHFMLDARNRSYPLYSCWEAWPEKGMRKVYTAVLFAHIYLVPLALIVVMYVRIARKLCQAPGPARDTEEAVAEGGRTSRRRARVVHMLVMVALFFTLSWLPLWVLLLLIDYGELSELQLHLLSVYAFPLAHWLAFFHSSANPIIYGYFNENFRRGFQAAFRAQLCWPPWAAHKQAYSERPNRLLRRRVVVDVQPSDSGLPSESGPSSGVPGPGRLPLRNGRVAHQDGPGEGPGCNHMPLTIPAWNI
Description: The r0T7T022L receptor-expressing CHO cells obtained in REFERENCE EXAMPLE 7 (2) above were inoculated on capsules for cytosensor in 2.7 x 10^5 cells/capsule. After culturing overnight, the cytosensor was mounted to a work station for the cytosensor. A medium for assay (low buffered RMPI1640 medium supplemented with 0.1% bovine serum albumin), that was set in the flow path of the cytosensor, was supplied to the cells in a pump cycle of ON (80 seconds) and OFF (40 seconds). A rate of change in […] from 8 to 30 seconds after the pump stopped was calculated as an acidification rate. A change of the acidification rate with passage of time was monitored; when stable reading was obtained, the flow path was switched to expose each peptide to the cells for 7 minutes and 2 seconds. In the acidification rate of each well, the data for 3 cycles immediately before the peptide exposure was made 100% for standardization.

[3] = system: pituitary hormone level in plasma; assay: Effect of administration into the third ventricle on pituitary hormone level in plasma (radioimmunoassay); type: in vivo, Wistar rats; settings: 10 nmols into the third ventricle; for plasma prolactin level: vs PBS control
[4] = biological target: T1, Human 0T7T022 receptor-expressing CHO cells; assay: Effect of pertussis toxin on activation of human 0T7T022 receptor by RFRP peptide (cAMP production inhibition); type: cell-based; settings: 0.1 µM peptide, 1 µM forskolin, cells treated with 100 ng/ml pertussis toxin, FIG. 15
Method: Human 0T7T022 receptor-expressing CHO cells obtained in EXAMPLE 8 were inoculated on a 24-well plate in a concentration of 1 x 10^5 cells/well. After culturing overnight, the medium was exchanged by a medium added with 100 ng/ml pertussis toxin (Sigma, Inc.) or with a control medium followed by further incubation overnight. The cells were rinsed with Hanks' buffer (HBSS) supplemented with 0.05% BSA and 0.2 mM IBMX and then preincubated at 37°C for 30 minutes in the same buffer. Next, the cells were incubated at 37°C for 30 minutes after the buffer was exchanged by Hanks' buffer alone (HBSS) supplemented with 0.05% BSA and 0.2 mM IBMX (black column), or by HBSS further added with 1 µM forskolin only (white column), or by HBSS added with 1 µM forskolin and 0.1 µM RFRP-1-12 (peptide having the 81 (Met) to 92 (Phe) amino acid sequence in SEQ ID NO:1) (hatched column). After completion of the incubation, cAMP in the cells of each well was extracted and quantified according to the method of cAMP EIA Kit (Amersham, Inc.).

rRFRP-1-37: peptide having the 58 (Ser) to 94 (Phe) amino acid sequence in SEQ ID NO:50 (SVTFQELKDWGAKKDIKMSPAPANKVPHSAANLPLRF; UniProt Q9ESQ9 58-94, looked up, fragment)
ED50 levels (inhibition rate of the increased cAMP level in the cells by the forskolin treatment) [1]: 30 nM

MPHSFANLPLRF-NH2
reaction of r0T7T022L-expressing CHO cells (acidification rate) [2]: strongly showed dose-dependent reaction | level of ACTH in plasma [3]: none showed any significant change | level of GH in plasma [3]: none showed any significant change | level of LH in plasma [3]: none showed any significant change | level of TSH in plasma [3]: none showed any significant change | plasma prolactin level ([3]; 10 minutes after administration): tended to increase | plasma prolactin level ([3]; 20 minutes after administration): significantly increased | plasma prolactin level ([3]; 30 minutes after administration): significantly increased | plasma prolactin level ([3]; 40 minutes after administration): significantly increased | plasma prolactin level ([3]; 60 minutes after administration): a significant difference was noted | cAMP production inhibiting activity [4]: lost

Asn-Pro-Phe-Phe [NPFF, reference compound]
ED50 levels (inhibition rate of the increased cAMP level in the cells by the forskolin treatment) [1]: 140 nM

hRFRP-1-37: peptide having the 56 (Ser) to 92 (Phe) amino acid sequence in SEQ ID NO:1 (SLNFEELKDWGPKNVIKMSTPAVNKMPHSFANLPLRF; UniProt Q9HCQ7 56-92, looked up, fragment)
ED50 levels (inhibition rate of the increased cAMP level in the cells by the forskolin treatment) [1]: 21 nM

CC(C)C[C@H](NC(=O)[C@H](CC(N)=O)NC(=O)[C@@H]1CCCN1C(=O)[C@@H](N)C(C)C)C(=O)N1CCC[C@H]1C(=O)N[C@@H](CCC(N)=O)C(=O)N[C@@H](CCCNC(=N)N)C(=O)N[C@@H](Cc1ccccc1)C(N)=O
reaction of r0T7T022L-expressing CHO cells (acidification rate) [2]: strongly showed dose-dependent reaction

Pro-Gln-Arg-Phe-NH2 (PQRF-NH2) [PQRFamide, reference compound]
ED50 levels (inhibition rate of the increased cAMP level in the cells by the forskolin treatment) [1]: ≥ 1000 nM
